# From patent US20240150340A1, “CDK Inhibitors And Their Use As Pharmaceuticals” (Prelude Therapeutics Incorporated, priority 2022, published 2024)
# Key:
# [1] = system: OVCAR3 p-RB; assay: pRB ICW Assay in OVCAR3 Cells; type: cell-based; conditions: Homo sapiens, OVCAR-3, incubated with compound for 2 hours
# Protocol: pRB ICW Assay in OVCAR3 Cells
# OVCAR3 cells were maintained in RPMI (Corning, Catalog #: 10-040-CV) supplemented with 10% v/v FBS (Gibco, Catalog #: 26140-079), 1% v/v Penicillin Streptomycin (Gibco, Catalog #15140-122.) OVCAR3 cells grown at log phase were trypsinized, counted, and resuspended in fresh medium to reach a final density of 6.7e4 cells/mL and 75 μL of culture were dispensed into a 384-well plate (Falcon, cat #353962) using a Multidrop Combi dispenser (Thermo Scientific). The next day, compounds were dispensed as a 9-point, ½ log serial dilution using a Tecan digital dispenser (D300e), and cells were incubated with compound for 2 hours in a humidified incubator at 37° C. A reference compound at a final concentration of 10 μM was used as a control for maximum inhibition. Each compound was tested in duplicate for each experiment. At the end of the incubation, […] (Electron Microscopy, cat #15710) was slowly added to each well and the plate was incubated at room temperature (RT) for 30 minutes to fix cells. Cells were then permeabilized by incubating with 50 μL/well of wash buffer (1×PBS with 0.1% Triton X-100) 5×5 minutes, followed by 1 hour blocking with 30 μL/well of Odyssey blocking buffer (Li-COR, cat #927-40000), at RT. Anti-phosphor RB antibody (Cell signaling 8516S) was diluted 1:1000 in Odyssey blocking buffer and 20 μL was added to all wells and incubated overnight in 4° C. with gently rocking. The next day, cells were washed 5×5 min with 50 μL/well of wash buffer, followed with 1 hour incubation with secondary antibody and DRAQ5 diluted in Odyssey blocking buffer (1:500 dilution for secondary antibody and 1:2000 dilution for DRAQ5), 5×5 min washes, and one last wash with water. Plates were dried in 37° C. oven for 5 minutes and scanned using Li-COR Odyssey CLx imaging system to acquire intensities at 700 and 800 nm channels.
# [2] = target: T1, CDK2/Cyclin E2 (Homo sapiens, UniProt P24941); assay: CDK2/CyclinE2 Enzymatic Activity Assay (TR-FRET); type: biochemical; conditions: ATP 1 mM final, read-out: CDK2_E1 IC50
# T1 construct: Recombinant protein complex CDK2/Cyclin E2, expressed from insect cell, was purchased from ProQinase
# Protocol: CDK2/CyclinE2 Enzymatic Activity Assay
# The inhibitory activity of compounds was evaluated in vitro using TR-FRET assay with white 384-well low volume microplate (Greiner Bio-One). CDK2/Cyclin E2 catalyzed phosphorylation of peptide in the presence and absence of compounds was measured and used in IC50 determination. Recombinant protein complex CDK2/Cyclin E2, expressed from insect cell, was purchased from ProQinase. Testing compounds were dissolved in DMSO at 1 mM and tested in 9-dose IC50 mode. The reaction mixture was prepared by mixing CDK2/CyclinE2 (1 nM final), ULight-4E-BP1 (50 nM final, Perkinelmer, TRF0128-D), and ATP (1 mM final) in assay buffer (20 mM of HEPES pH 7.4, 1 mM of EGTA, 0.05% BSA, 0.005% Tween 20, and 1 mM TCEP). The compound of interest in DMSO was added to each well in 3-fold serial dilution by dispenser (TECAN D300E) to make a 9.9 μL of reaction mixture. After 20 minutes preincubation at room temperature, 0.1 μL MgCl2 (10 mM final) was added to initiate the reaction. Following a 45 minute incubation at 37° C., the reaction was stopped by addition of 2 μL of quenching buffer consisting of Lance detection buffer (Perkinelmer CR97-100C), LANCE Ultra Europium-anti-P-4E-BP1 (Perkinelmer, TRF0216-D), EDTA, and incubated at room temperature for additional 60 minutes in the dark. The reaction signal was measured by Envision multimode plate reader (PerkinElmer, 2102-0010). IC50 values were determined by fitting the data to the standard 4 parameters with Hill Slope using GraphPad Prism software.
IC50 [1],IC50 [2],Compound
≤ 100 nM,≤ 100 nM,"Cn1cc(S(=O)(=O)N2CC[C@@H](Nc3ncc(C(F)(F)F)c(-c4cc(C(N)=O)ns4)n3)[C@H](F)C2)cn1 [Example 128, 5-(2-(((3R,4R)-3-fluoro-1-((1-methyl-1H-pyrazol-4-yl)sulfonyl)piperidin-4-yl)amino)-5-(trifluoromethyl)pyrimidin-4-yl)isothiazole-3-carboxamide]"
≤ 100 nM,≤ 100 nM,"Cn1cc(S(=O)(=O)N2CC[C@H](Nc3ncc(C(F)(F)F)c(-c4cc(C(N)=O)ns4)n3)[C@H](F)C2)cn1 [Example 129, 5-(2-(((3R,4S)-3-fluoro-1-((1-methyl-1H-pyrazol-4-yl)sulfonyl)piperidin-4-yl)amino)-5-(trifluoromethyl)pyrimidin-4-yl)isothiazole-3-carboxamide]"
100 to 500 nM,≤ 100 nM,"CC(C)(O)Cc1sc(-c2nc(NC3CCN(S(C)(=O)=O)CC3)ncc2C(F)(F)F)cc1C(N)=O [Example 130, 2-(2-hydroxy-2-methylpropyl)-5-(2-((1-(methylsulfonyl)piperidin-4-yl)amino)-5-(trifluoromethyl)pyrimidin-4-yl)thiophene-3-carboxamide]"
≤ 100 nM,≤ 100 nM,"C[C@@H]1CN(S(=O)(=O)c2cn(C)cn2)CC[C@@H]1Nc1ncc(C(F)(F)F)c(-c2ncc(C(C)(C)O)s2)n1 [Example 133, 2-(2-(2-(((3R,4S)-3-methyl-1-((1-methyl-1H-imidazol-4-yl)sulfonyl)piperidin-4-yl)amino)-5-(trifluoromethyl)pyrimidin-4-yl)thiazol-5-yl)propan-2-ol]"
≤ 100 nM,≤ 100 nM,"CS(=O)(=O)N1CCC(Nc2ncc(C(F)(F)F)c(-c3ncc(C(O)C(F)F)s3)n2)CC1 (stereo not drawn) [Example 134, 2,2-difluoro-1-(2-(2-((1-(methylsulfonyl)piperidin-4-yl)amino)-5-(trifluoromethyl)pyrimidin-4-yl)thiazol-5-yl)ethan-1-ol]"
100 to 500 nM,≤ 100 nM,"CC(C)(O)Cc1cnc(-c2nc(N[C@@H]3CCN(S(C)(=O)=O)C[C@H]3F)ncc2C(F)(F)F)s1 [Example 135, 1-(2-(2-(((3R,4R)-3-fluoro-1-(methylsulfonyl)piperidin-4-yl)amino)-5-(trifluoromethyl)pyrimidin-4-yl)thiazol-5-yl)-2-methylpropan-2-ol]"
≤ 100 nM,≤ 100 nM,"Cn1cnc(S(=O)(=O)N2CC[C@H](Nc3ncc(C(F)(F)F)c(-c4ncc(CC(C)(C)O)s4)n3)[C@H](F)C2)c1 [Example 136, 1-(2-(2-(((3R,4S)-3-fluoro-1-((1-methyl-1H-imidazol-4-yl)sulfonyl)piperidin-4-yl)amino)-5-(trifluoromethyl)pyrimidin-4-yl)thiazol-5-yl)-2-methylpropan-2-ol]"
≤ 100 nM,≤ 100 nM,"CC(C)(O)Cc1cnc(-c2nc(N[C@H]3CCN(S(=O)(=O)c4cn[nH]c4)C[C@H]3F)ncc2C(F)(F)F)s1 [Example 137, 1-(2-(2-(((3R,4S)-1-((1H-pyrazol-4-yl)sulfonyl)-3-fluoropiperidin-4-yl)amino)-5-(trifluoromethyl)pyrimidin-4-yl)thiazol-5-yl)-2-methylpropan-2-ol]"
≤ 100 nM,≤ 100 nM,"C[C@@H]1CN(S(=O)(=O)c2cnn(C)c2)CC[C@@H]1Nc1ncc(C(F)(F)F)c(-c2ncc(C(O)C(F)F)s2)n1 (stereo partly drawn) [Example 138, 2,2-difluoro-1-(2-(2-(((3R,4S)-3-methyl-1-((1-methyl-1H-pyrazol-4-yl)sulfonyl)piperidin-4-yl)amino)-5-(trifluoromethyl)pyrimidin-4-yl)thiazol-5-yl)ethan-1-ol]"
≤ 100 nM,≤ 100 nM,"C[C@@H]1CN(S(=O)(=O)c2cn(C)cn2)CC[C@@H]1Nc1ncc(C(F)(F)F)c(-c2ncc(C(O)C(F)F)s2)n1 (stereo partly drawn) [Example 139, 2,2-difluoro-1-(2-(2-(((3R,4S)-3-methyl-1-((1-methyl-1H-imidazol-4-yl)sulfonyl)piperidin-4-yl)amino)-5-(trifluoromethyl)pyrimidin-4-yl)thiazol-5-yl)ethan-1-ol]"

# Continued, compound first:
Compound,IC50 [1],IC50 [2]
"C[C@@H]1CN(S(=O)(=O)c2c[nH]cn2)CC[C@@H]1Nc1ncc(C(F)(F)F)c(-c2cc(C#N)c(C(C)(C)O)s2)n1 [Example 120, 5-(2-(((3R,4S)-1-((1H-imidazol-4-yl)sulfonyl)-3-methylpiperidin-4-yl)amino)-5-(trifluoromethyl)pyrimidin-4-yl)-2-(2-hydroxypropan-2-yl)thiophene-3-carbonitrile]",≤ 100 nM,≤ 100 nM
"C[C@@H]1CN(S(=O)(=O)c2cn(C)cn2)CC[C@@H]1Nc1ncc(C(F)(F)F)c(-c2cc(C#N)c(C(C)(C)O)s2)n1 [Example 121, 2-(2-hydroxypropan-2-yl)-5-(2-(((3R,4S)-3-methyl-1-((1-methyl-1H-imidazol-4-yl)sulfonyl)piperidin-4-yl)amino)-5-(trifluoromethyl)pyrimidin-4-yl)thiophene-3-carbonitrile]",100 to 500 nM,≤ 100 nM
"CS(=O)(=O)N1CCC(Nc2ncc(C(F)(F)F)c(-c3cc(C#N)c(C(O)C(F)(F)F)s3)n2)CC1 (stereo not drawn) [Example 122, 5-(2-((1-(methylsulfonyl)piperidin-4-yl)amino)-5-(trifluoromethyl)pyrimidin-4-yl)-2-(2,2,2-trifluoro-1-hydroxyethyl)thiophene-3-carbonitrile]",≤ 100 nM,≤ 100 nM
"C[C@@H]1CN(S(=O)(=O)c2cnn(C)c2)CC[C@@H]1Nc1ncc(C(F)(F)F)c(-c2cc(C#N)c(C(O)C(F)(F)F)s2)n1 (stereo partly drawn) [Example 123, 5-(2-(((3R,4S)-3-methyl-1-((1-methyl-1H-pyrazol-4-yl)sulfonyl)piperidin-4-yl)amino)-5-(trifluoromethyl)pyrimidin-4-yl)-2-(2,2,2-trifluoro-1-hydroxyethyl)thiophene-3-carbonitrile]",≤ 100 nM,≤ 100 nM
"CC(C)(O)Cc1sc(-c2nc(NC3CCN(S(C)(=O)=O)CC3)ncc2C(F)(F)F)cc1C#N [Example 124, 2-(2-hydroxy-2-methylpropyl)-5-(2-((1-(methylsulfonyl)piperidin-4-yl)amino)-5-(trifluoromethyl)pyrimidin-4-yl)thiophene-3-carbonitrile]",≤ 100 nM,≤ 100 nM
"Cn1cc(S(=O)(=O)N2CCC(Nc3ncc(C(F)(F)F)c(-c4cc(C#N)c(CC(C)(C)O)s4)n3)CC2)cn1 [Example 125, 2-(2-hydroxy-2-methylpropyl)-5-(2-((1-((1-methyl-1H-pyrazol-4-yl)sulfonyl)piperidin-4-yl)amino)-5-(trifluoromethyl)pyrimidin-4-yl)thiophene-3-carbonitrile]",100 to 500 nM,≤ 100 nM
"Cn1cc(S(=O)(=O)N2CC[C@@H](Nc3ncc(C(F)(F)F)c(-c4cc(C#N)c(CC(C)(C)O)s4)n3)[C@H](F)C2)cn1 [Example 126, 5-(2-(((3R,4R)-3-fluoro-1-((1-methyl-1H-pyrazol-4-yl)sulfonyl)piperidin-4-yl)amino)-5-(trifluoromethyl)pyrimidin-4-yl)-2-(2-hydroxy-2-methylpropyl)thiophene-3-carbonitrile]",≤ 100 nM,≤ 100 nM
"Cn1cnc(S(=O)(=O)N2CC[C@@H](Nc3ncc(C(F)(F)F)c(-c4cc(C#N)c(CC(C)(C)O)s4)n3)[C@H](F)C2)c1 [Example 127, 5-(2-(((3R,4R)-3-fluoro-1-((1-methyl-1H-imidazol-4-yl)sulfonyl)piperidin-4-yl)amino)-5-(trifluoromethyl)pyrimidin-4-yl)-2-(2-hydroxy-2-methylpropyl)thiophene-3-carbonitrile]",≤ 100 nM,≤ 100 nM
